Data: US7507739B2, “6-[(substituted)phenyl]triazolopyrimidines as anticancer agents” (Wyeth, priority 2003, dated 2009)
Marks after values point to notes of the source that are not given here.

How the values were obtained:
[1] = tested on: H157 Human Non-Small Cell Lung Carcinoma; assay: Human tumor xenograft test, H157; assay type: in vivo, athymic mice; details: for T/C on day 0 / T/C on day 7 / T/C on day 11 / T/C on day 14: days 0, 6
Method: (§1) The ability of compounds of this invention to inhibit tumor growth in animals is studied in the athymic mouse xenograft standard pharmacological test. Female nu/nu mice in an outbred albino background are obtained from Charles River Laboratories (Wilmington, Mass.). Animals are injected subcutaneously on the flank with the desired tumor cell suspension. Several days later, mice with tumors of approximately 150 mm^3 are selected from those injected (staged) and randomly distributed into groups of 5-10. The day of staging is called day 0. Compounds of the invention, usually formulated in saline (exceptions are noted in tables), are administered to animals by intravenous injection or oral gavage on various schedules starting on day 0 or 1, as noted in the tables. The control group in each experiment is dosed with vehicle on the same schedule. Tumor size is measured every 3-7 days with calipers in two orthogonal dimensions, and tumor volume is calculated from the formula volume=[(length×width^2)/2].
(§2) Tumor/Control (T/C) is obtained by dividing the mean tumor volume of the treated group by the mean tumor volume of the control group on each measurement day. A treatment dose is defined as active if it produced a statistically significant T/C of 0.50 or less. A p value≦0.05, determined by one-side Student's t-test, is required for statistical significance. A treatment dose is defined as toxic if more than 10% of the animals died from a compound-related toxicity.

[2] = tested on: HT-29 Human Colon Carcinoma; assay: Human tumor xenograft test, HT-29; assay type: in vivo, athymic mice
Method: as §1, §2

For `CNCCCOc1cc(F)c(-c2c(Cl)nc3ncnn3c2N[C@@H](C)C(F)(F)F)c(F)c1.Cl` [Example 2a, 5-Chloro-6-{2,6-difluoro-4-[3-(methylamino)propoxy]phenyl}-N-[(1S)-2,2,2-trifluoro-1-methylethyl][1,2,4]triazolo[1,5-a]pyrimidin-7-amine hydrogen chloride], the “T/C on day 0” value ([1]; H157, 7.5 mg/kg IV) was 1.04, the “T/C on day 7” value ([1]; H157, 7.5 mg/kg IV) was 0.54** and the “T/C on day 11” value ([1]; H157, 7.5 mg/kg IV) was 0.42**. For the same molecule, the “T/C on day 14” value ([1]; H157, 7.5 mg/kg IV) was 0.45**, the “T/C on day 0” value ([1]; H157, 15 mg/kg IV) was 1.02 and the “T/C on day 7” value ([1]; H157, 15 mg/kg IV) was 0.55*. For the same molecule, the “T/C on day 11” value ([1]; H157, 15 mg/kg IV) was 0.44*, the “T/C on day 14” value ([1]; H157, 15 mg/kg IV) was 0.42** and the “T/C on day 0” value ([1]; H157, 25 mg/kg IV) was 1.03. The “T/C on day 7” value ([1]; H157, 25 mg/kg IV) was 0.62*, the “T/C on day 11” value ([1]; H157, 25 mg/kg IV) was 0.29** and the “T/C on day 14” value ([1]; H157, 25 mg/kg IV) was 0.30**. The “tumor growth inhibition (activity call)” value ([1]; H157 NSCLC, 25, 15 and 7.5 mg/kg intravenously on days 0 and 6) was “inhibited tumor growth”, the “T/C on day 0” value ([2]; HT-29, 25 mg/kg IV, days 1, 7) was 1.00 and the “T/C on day 7” value ([2]; HT-29, 25 mg/kg IV, days 1, 7) was 0.44**. The “T/C on day 10” value ([2]; HT-29, 25 mg/kg IV, days 1, 7) was 0.34**, the “T/C on day 13” value ([2]; HT-29, 25 mg/kg IV, days 1, 7) was 0.26** and the “T/C on day 21” value ([2]; HT-29, 25 mg/kg IV, days 1, 7) was 0.43**. For the same molecule, the “T/C on day 24” value ([2]; HT-29, 25 mg/kg IV, days 1, 7) was 0.46** and the “tumor growth inhibition (activity call)” value ([2]; HT-29, 25 mg/kg intravenously on days 1 and 7) was “inhibited the growth”.
